Measured values published in PubChem BioAssay AID1259426 (Fisher Drug Discovery Resource Center, 2018).
Activity calls are given as the source filed them.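 Rule for the calls: active = EC50 under a set limit in control cells lacking the mosquito receptor, marking a fluorescence artifact; inactive = the rest.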

Biological target: HEK293 Galpha15/GCaMP6s without NPYLR7, calcium fluorescence
Assay: calcium response in NPYLR7-null HEK293 cells, dose response, counter-screen for mosquito NPYLR7 agonist project, cell-based, HEK293 lacking NPYLR7 (AID 1259426);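 note: potency for a rise in fluorescence over baseline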

EC50 | SMILES
4.29 µM | CC(=O)[C@]1(O)Cc2c(O)c3c(c(O)c2[C@@H](O[C@H]2C[C@H](N)[C@H](O)[C@H](C)O2)C1)C(=O)c1ccccc1C3=O
2.17 µM | C=CCN1C=CC(=CC=C(C#N)C#N)C=C1
1.51 µM | Cc1cc(C=C2Sc3ccccc3N2C)cc(C)[n+]1-c1ccccc1
> 20 µM (inactive) | COc1ccc(C2=NN(C(=O)CN3CCOCC3)C(c3nc4ccccc4[nH]3)C2)cc1 (stereo not given)
> 20 µM (inactive) | COCCCN(Cc1ccc(C(C)(C)C)cc1)Cc1cccn1Cc1cccc(C)c1
< 0.039 µM | CCOC(=O)c1ccccc1-c1c2ccc(=N)cc-2oc2cc(N)ccc12
8.39 µM | O=C1/C(=C/c2ccc3c(c2)OCO3)Oc2c1ccc1c2CN(CC2CCCO2)CO1 (stereo not given)
12 µM | O=C(O)CCn1c(O)c(C=C2C=Nc3ccccc32)sc1=S
> 20 µM (inactive) | NS(=O)(=O)c1ccc(NC(NC(=O)c2ccco2)C(=O)c2ccc(Cl)cc2)cc1 (stereo not given)
7.28 µM | COCCOc1ccc(NS(=O)(=O)c2cn(C)c(Cl)n2)cn1
> 20 µM (inactive) | CCCCNC(=O)CCCCCNC(N)=O
0.151 µM | COc1cc(C=CC(=O)c2ccc3c(c2)OCCO3)cc(Br)c1O
> 20 µM (inactive) | NC(=NCCCCCCN=C(N)N=C(N)Nc1ccc(Cl)cc1)N=C(N)Nc1ccc(Cl)cc1
6.38 µM | O=C1CCCC2Nc3ncnc(Cl)c3OC12 (stereo not given)
2.17 µM | CCCn1c2c(c(=O)n(C)c1=O)C(=O)C(=Cc1ccc(N(C)C)cc1)N2
17 µM | Nc1ccc(-c2nc3cc(N)cc(Cl)c3o2)cc1
> 20 µM (inactive) | N#C/C(=C\c1ccc(O)c(O)c1)C(=O)NCCCc1ccccc1
> 20 µM (inactive) | O=C1c2ccccc2-c2nn(CN3CCN(c4ccccc4)CC3)c3cccc1c23
10.1 µM | N#CC1C(=N)SC(=N)C(C#N)C1c1cccc(O)c1 (stereo not given)
> 20 µM (inactive) | O=C(N=Nc1c(O)[nH]c2ccc(Br)cc12)c1ccccc1Cl
17.3 µM | O=C1c2ccccc2C(=O)C1c1ccnc2ccccc12
> 20 µM (inactive) | CC(C)C(=O)Nc1sc2c(c1-c1nc3ccccc3s1)CCN(C)C2
> 20 µM (inactive) | O=[N+]([O-])c1cc(S(=O)(=O)Nc2cc(Cl)ccc2F)ccc1F
> 20 µM (inactive) | Cc1oc(-c2cccc(NC(=O)CC(C)C)c2)nc1CNC(=O)Cc1cc(F)cc(F)c1
> 20 µM (inactive) | CC(C)Nc1ccc(NS(=O)(=O)NCc2ccccc2)cn1
> 20 µM (inactive) | COc1ccc(NC(=O)C2C=CCN2)cc1NC(=O)c1ccco1 (stereo not given)
1.37 µM | CC(C)NC[C@@H](O)c1ccc(O)c(O)c1

EC50 | SMILES
12.1 µM | CC(C(=O)O)N1C(=O)/C(=C\c2ccc(O)cc2)SC1=S (stereo not given)
> 20 µM (inactive) | COc1ccc(CC2c3cc(OC)c(OC)cc3CC[N+]2(C)CCC(=O)OCCCCCOC(=O)CC[N+]2(C)CCc3cc(OC)c(OC)cc3C2Cc2ccc(OC)c(OC)c2)cc1OC (stereo not given)
0.47 µM | NCCNc1ccc2c3c(cccc13)C(=O)N(c1ccc(Cl)cc1)C2=O
> 20 µM (inactive) | O[C@@H]1CN(Cc2ccncc2Cl)CC[C@H]1c1ccc2c(c1)OCO2
> 20 µM (inactive) | CCc1nc(N=C(N)N)nc2cc(C)ccc12
3.02 µM | COc1cc(/C=C2\SC(=S)N(C(C)C(=O)O)C2=O)ccc1O (stereo not given)
19.3 µM | N#C/C(=C/c1ccc(N2CCCCCC2)o1)c1ccc(F)cc1
0.893 µM | CCOc1cc(C=O)c(O)c(C=O)c1
> 20 µM (inactive) | COc1cc(OC)cc(C(=O)N2CCN(C(C(=O)Nc3ccc(NC(C)=O)cc3)C3CCCC3)CC2)c1 (stereo not given)
> 20 µM (inactive) | COc1cc(NC(=O)N2CC(=O)N3CCc4c(F)cccc4C3C2)cc(OC)c1OC (stereo not given)
> 20 µM (inactive) | CCOC(=O)N1CCN(c2ccc(/C=C(\C#N)c3nc4ccccc4n3C)o2)CC1
> 20 µM (inactive) | CCOC(=O)c1nc2ccccc2nc1N1CCN(C(=O)N2CCOCC2)CC1
inactive | CC(=NNc1ncnc2sc(C)c(C)c12)c1ccccn1
< 17.7 µM | N#CC(C#N)=C1C=C2C=C(N3CCCC3)CCC2CC1 (stereo not given)
6.64 µM | O=C1/C(=C/c2cc3cc(Br)ccc3o2)Oc2c1ccc(O)c2CN1CCN(CCO)CC1
8.28 µM | CCCC(C(=O)O)N1C(=O)/C(=C/c2ccc(O)cc2)SC1=S (stereo not given)
18.3 µM | Nc1ccc(Oc2cc(N)cc(Oc3ccccc3)c2)cc1
> 20 µM (inactive) | COc1ccc(-n2ccnc2-c2ccc(C#CC(C)(C)O)cc2)cn1
> 20 µM (inactive) | CC1CC2(C)Oc3ccccc3C3OCC1(CO)C(C)C32 (stereo not given)
0.577 µM | COC(=O)c1cc(N)c(/C=C/c2cccs2)s1
7.94 µM | CCC(C)[n+]1c(C)cc(C=C2Sc3ccccc3N2C)cc1C (stereo not given)
> 20 µM (inactive) | Cc1ccc2nc(Cn3cnc4c(Cl)cc(Cl)cc4c3=O)cc(=O)n2c1
> 20 µM (inactive) | CC(=O)OC(C)C[N+](C)(C)C (stereo not given)
> 20 µM (inactive) | CCN1C(=Cc2cc(C)[n+](CC3CCCO3)c(C)c2)Sc2ccccc21 (stereo not given)
> 20 µM (inactive) | CCCc1nn2c(N)c(C=C3C=C(Cl)C(=O)C(Cl)=C3)c(=O)nc2s1
2.69 µM | O=C(O)CCN1C(=O)/C(=C/c2ccc(O)cc2)SC1=S
> 20 µM (inactive) | C[C@@H](NC(=O)CN1Cc2ccc(N3CCOCC3)nc2C1=O)c1ccccc1

EC50 | SMILES
> 20 µM (inactive) | CCOc1ccc(/C=C2N=C(/C=C/c3ccccc3)OC/2=O)cc1
1.94 µM | N#Cc1cc2cc(Cl)cc(Cl)c2oc1=O
> 20 µM (inactive) | CC(C)N=c1c([N+](=O)[O-])nn(-c2ccc(Cl)cc2)n1O
9.33 µM | COc1ccc(/C=C2\Oc3c(ccc4c3CN(CC3CCCO3)CO4)C2=O)cc1 (stereo not given)
10.6 µM | Oc1oc(-c2ccccc2Br)nc1C=Nc1ccccc1
> 20 µM (inactive) | O=C(c1nccc2ccccc12)N1CCN(CC2CCCC2)CC1
> 20 µM (inactive) | CS(=O)(=O)Nc1nc2n(n1)C(c1ccccc1)CC(c1ccc(Cl)cc1)=N2 (stereo not given)
> 20 µM (inactive) | O=P1(Nc2cc(C(F)(F)F)ccc2Cl)C=C(c2ccccc2)OC(c2ccccc2)=C1
> 20 µM (inactive) | COc1ccc(CCN2COc3ccc4c(c3C2)O/C(=C\c2cccnc2)C4=O)cc1
> 20 µM (inactive) | Cc1ccc(NC2C=CS(=O)(=O)C2)cc1C (stereo not given)
< 0.039 µM | Cc1cc2nc3c(=O)[nH]c(=O)nc-3n(CC(O)C(O)C(O)CO)c2cc1C (stereo not given)
< 0.039 µM | O=C1c2cccc3c(NCC(O)CCl)ccc(c23)C(=O)N1c1ccccc1 (stereo not given)
> 20 µM (inactive) | O=C(CNCc1ccccc1)N1CC(=O)N(c2cccc(Cl)c2)C1
> 20 µM (inactive) | CCOc1ccc(C(=O)Nc2sc3c(c2-c2nc4ccccc4s2)CCN(C)C3)cc1
> 20 µM (inactive) | CCOc1cccc(C=C2Oc3cc(O)ccc3C2=O)c1OC
> 20 µM (inactive) | COc1ccc(OC)c(CCNc2nc3cnc(-c4ccc(Cl)cc4)cc3n2C)c1
> 20 µM (inactive) | COCCOc1ccc(NC(=O)N(C)C(C)C2(C)CC2)cn1 (stereo not given)
13.9 µM | O=C1/C(=C/c2cccc(F)c2)Oc2c1ccc(O)c2CN1CCN(CCO)CC1
> 20 µM (inactive) | O=C1Nc2ccccc2C1C=NN1CCOCC1 (stereo not given)
0.039 µM | CCN(CC)c1ccc(/C=C2\SC(=S)N(CCS(=O)(=O)O)C2=O)cc1
6.43 µM | COc1cc(C=C(C#N)S(=O)(=O)c2cc(Cl)ccc2Cl)cc(Br)c1O
0.346 µM | CN(C)c1ccc(/C=C2/SC(=S)N(CC(=O)O)C2=O)cc1Br
14.7 µM | CCOc1cc2c(cc1C=C(C#N)C#N)OC(C)C2 (stereo not given)
> 20 µM (inactive) | C=CCN1C(=O)C(Cc2ccc(OC)cc2)S/C1=N/N=C\c1cccs1 (stereo not given)
> 20 µM (inactive) | CC(=O)Nc1nc(COC(=O)c2[nH]c(C)c(C(=O)OC(C)C)c2C)cs1
0.945 µM | CCN1CCc2c(sc(NC(=O)C3=COCCO3)c2-c2nc3ccccc3s2)C1
1.4 µM | CSc1ccc(C2CC(c3cccs3)=Nc3ncnn32)cc1 (stereo not given)

EC50 | SMILES
0.294 µM | O=C(O)CSc1ccc2c3c(cccc13)C(=O)c1ccccc1-2
> 20 µM (inactive) | COc1ccc(Cl)cc1NC(=O)/C(C#N)=C/c1coc2ccc(C)cc2c1=O
7.76 µM | N#CC1C(=N)SC(=N)C(C#N)C1c1ccc(Cl)cc1Cl (stereo not given)
> 20 µM (inactive) | COc1ccc(N2CCN(c3cc(C(F)(F)F)nc(SCc4cccc(C(=O)NCc5ccccn5)c4)n3)CC2)cc1
> 20 µM (inactive) | CC(=O)Oc1ccc(Cn2c(C)c(C(=O)NCc3ccc(C#N)cc3)sc2=O)cc1
0.911 µM | CCN1C(=Cc2ccc3cc(C)ccc3[n+]2CC)Sc2ccccc21
6.49 µM | CSCCC(C(=O)O)N1C(=O)/C(=C/c2ccc(O)cc2)SC1=S (stereo not given)
> 20 µM (inactive) | COc1ccc2nc(C=Cc3cc(Br)c(O)c(OC)c3)sc2c1
10.5 µM | COc1cccc(/C=C2\Oc3c(ccc4c3CN(Cc3ccncc3)CO4)C2=O)c1
7.87 µM | Nc1ncnc2c1ncn2[C@@H]1O[C@H](CO)[C@H](O)C1O (stereo not given in full)
18.4 µM | CN(C)/C=C1\C(=O)N(c2c(Cl)cccc2Cl)c2cc(C=C(C#N)C#N)ccc21
6.94 µM | CCN1CCN(Cc2c(O)ccc3c2O/C(=C\c2cc4cc(Br)ccc4o2)C3=O)CC1
> 20 µM (inactive) | CNC(=O)c1cnc(/C=C/c2csc(-c3ccsc3)n2)[nH]c1=O
> 20 µM (inactive) | N#CC(C#N)=C1C=C2C=C(N3CCc4ccccc4C3)CCC2CC1 (stereo not given)
> 20 µM (inactive) | CN(Cc1ccccc1)C1=CC2=CC(=C(C#N)C#N)CCC2CC1 (stereo not given)
> 20 µM (inactive) | CC(C)(C)c1cnc(CSc2cnc(NC(=O)C3CCNCC3)s2)o1
19.5 µM | COc1cc(C=C(C#N)S(=O)(=O)c2cc(Br)ccc2Br)ccc1O
> 20 µM (inactive) | CC(C)(C)NCC(O)c1ccc(O)c(CO)c1 (stereo not given)
> 20 µM (inactive) | Cc1ccc(CN(Cc2ccc(F)cc2)C(=O)CNCCN2CCOCC2)s1
14.5 µM | C(/C=C/CC=Nc1ccccc1)=Nc1ccccc1
4.79 µM | CC(C)N1CCc2c(sc(NC(=O)C3CC3)c2-c2nc3ccccc3s2)C1
> 20 µM (inactive) | N#C/C(=C\c1ccc(O)c(O)c1)C(=O)Nc1ccccc1
> 20 µM (inactive) | Cc1nc(=O)c(-c2ccccc2)c(C)n1-c1ccccc1O
15.4 µM | Clc1ccc(-c2noc3c2CN(CCn2cc(Cl)cn2)CC3)cc1
